Data published in US20090054375A1, “Compositions, Systems, and/or Methods Involving Chlorine Dioxide” (priority 2007, published 2009).

Test: Enhanced solubility of beta-cyclodextrin in water containing ClO2 (slurry test)
Assay type: physicochemical
Settings: 100 g slurries of 5% beta-cyclodextrin (w/w) in 8000 ppm ClO2 vs ultrapure water, mixed at 200 rpm for 3 days, dried 2 days

weight of dried undissolved beta-cyclodextrin from the ClO2 containing slurry, less than the control slurry: 0.32 g
SMILES: OC[C@H]1O[C@@H]2O[C@H]3[C@H](O)[C@@H](O)[C@@H](O[C@H]4[C@H](O)[C@@H](O)[C@@H](O[C@H]5[C@H](O)[C@@H](O)[C@@H](O[C@H]6[C@H](O)[C@@H](O)[C@@H](O[C@H]7[C@H](O)[C@@H](O)[C@@H](O[C@H]8[C@H](O)[C@@H](O)[C@@H](O[C@H]1[C@H](O)[C@H]2O)O[C@@H]8CO)O[C@@H]7CO)O[C@@H]6CO)O[C@@H]5CO)O[C@@H]4CO)O[C@@H]3CO [beta-cyclodextrin]
